The values that follow come from patent US9802885B2, “Substituted cyclohexane compounds” (TAKASAGO INTERNATIONAL CORPORATION (USA), priority 2011, dated 2017).

Entries after “also recorded” stand apart in the source; their conditions may differ.

The nature of assay [1]: Organoleptic properties of the compounds of Formulas I, II and III (Tables 1-3). Particulars: in vivo. The source says: For example, the compounds of the presently disclosed subject matter impart cooling, warming, burning, tingling, numbing, salivating, musty, bitter, and/or astringent sensation. In addition, the compounds of the presently disclosed subject matter can impart tropical, fruity (e.g., berry), minty, phenolic, and vegetable (e.g., peppery) notes as well as creaminess and sweetness to flavor ingredients. The organoleptic properties of certain compounds of Formulas I, II, and III are described in Tables 1, 2, and 3, respectively.

Assay [2] has as its system trained evaluators. As to the kind of experiment: Rated warming level of hot and spicy flavor composition in water, swish and spit (Example 17). The format is in vivo. As for the experimental part: Each evaluator was asked to rate the warming level in the mouth on a scale of 1-9 over a 5 minute period after swishing & spitting the sample.
Assay [3] relates to trained evaluators. As to the kind of experiment: Enhancement of the warming effect of vanillyl butyl ether (VBE), heat intensity and preference (Example 20). It counts as in vivo. As for the experimental part:
Compound 1 was tested for its synergistic enhancement of the warming effect from pungent compound vanillyl butyl ether (VBE). A stock solution of 1% VBE in ethanol was prepared. This stock solution was then added at 0.2% in water to produce a 20 ppm tasting solution (Control). To subsequent 20 ppm tasting solutions was added 2.5 ppm of Compound 1 (Formula G) and 2.5 ppm WS-3 (Formula H). Ten trained evaluators were asked to rate heat intensity in the mouth and rank the three samples for preference after swishing and spitting the sample.

The subject of assay [4] is trained evaluators. As to the kind of experiment: Tasting of wasabi-type flavor composition in water (Example 18). The format is in vivo. The source says: Formula C was selected as being preferred by 7 out of the 8 evaluators.
For assay [5], the system named is expertly trained evaluators. In words: Rated cooling intensity of mouth-rinse composition (Example 21). It counts as in vivo. As for the experimental part: Compound 8 was tested in the following mouth-rinse composition Formula J and evaluated over a 20 minute period by five expertly trained evaluators, compared to two other mint flavor compositions, a Control and Formula K that contains WS-3 as shown below. The compositions were each dissolved at 0.1% in the following mouth-rinse base (50 ppm dosage of Compound 8 & WS-3 respectively). The evaluators were asked to rate cooling intensity on a scale of 1-9 in the mouth at 0, 0.5, 1, 5, 10, and 20 minutes.

Assay [6] concerns expertly trained evaluators. In words: Tasting of mouthwatering composition in water (Example 19). It counts as in vivo. As to conditions: 0.5% w/w Compound 10, 0.05% in water (2.5 ppm).
For assay [7] the following is noted: generally known; cited from earlier work.

Take `C=C(C)[C@@H]1CC[C@@H](C)C[C@H]1C(=O)NCC` [Compound 1, (1R,2R,5R)—N-ethyl-5-methyl-2-(prop-1-en-2-yl)cyclohexanecarboxamide]: the “Organoleptic Properties” value in assay [1] was “cooling, tingling, and numbing sensation”. The “heat/warming perception compared to control Formula B” value with trained evaluators [2] (0.5% w/w Compound 1) is “enhance the initial heat perception”; in the assay on trained evaluators [2] (0.5% w/w Compound 1, listed as N-ethyl-5-methyl-2-(prop-1-en-2-yl)cyclohexanecarboxamide), “enhances the warming perception”. In addition, the “enhancement of the warming effect of pungent compounds compared to WS-3” value with trained evaluators [3] is recorded as “enhances the warming effect of pungent compounds much better”.

For the compound `C=C(C)[C@@H]1CC[C@@H](C)C[C@H]1C(=O)NC1CC1` [Compound 2, (1R,2R,5R)—N-cyclopropyl-5-methyl-2-(prop-1-en-2-yl)cyclohexanecarboxamide], the “Organoleptic Properties” value in assay [1] is reported as “slight cooling, salivating”. Still for that read-out and setting: the result for `C=C(C)[C@@H]1CC[C@@H](C)C[C@H]1C(=O)NC(C)C` [Compound 3, (1R,2R,5R)—N-isopropyl-5-methyl-2-(prop-1-en-2-yl)cyclohexanecarboxamide] reads “slight cooling”; that for `C=C(C)[C@@H]1CC[C@@H](C)C[C@H]1C(=O)NC(C)(C)C` [Compound 4, (1R,2R,5R)—N-(tert-butyl)-5-methyl-2-(prop-1-en-2-yl)cyclohexanecarboxamide], “slight burn, warming,; also recorded: irritation”. Turning to `C=C(C)[C@@H]1CC[C@@H](C)C[C@H]1C(=O)NC(C)CC` (stereo partly drawn) [Compound 5, (1R,2R,5R)—N-(sec-butyl)-5-methyl-2-(prop-1-en-2-yl)cyclohexanecarboxamide], in assay [1], the “Organoleptic Properties” value is reported as “bitter, cooling”. In the case of `C=C(C)[C@@H]1CC[C@@H](C)C[C@H]1C(=O)NCC(=O)OCC` [Compound 6, (1R,2R,5R)-ethyl 2-(5-methyl-2-(prop-1-en-2-yl)cyclohexanecarboxamido)acetate], the “Organoleptic Properties” value in assay [1] is reported as “bitter, cooling, irritation”. Take `C=C(C)[C@@H]1CC[C@@H](C)C[C@H]1C(=O)Nc1ccc(OC)cc1` [Compound 7, (1R,2R,5R)—N-(4-methoxyphenyl)-5-methyl-2-(prop-1-en-2-yl)cyclohexanecarboxamide]: in assay [1], the “Organoleptic Properties” value is recorded as “musty, astringent, slight cooling”. On to `C=C(C)[C@@H]1CC[C@@H](C)C[C@H]1C(=O)Nc1ccc(CC#N)cc1` [Compound 8, (1R,2R,5R)—N-(4-(cyanomethyl)phenyl)-5-methyl-2-(prop-1-en-2-yl)cyclohexanecarboxamide], for which, in assay [1], the “Organoleptic Properties” value was “phenolic, strong burning”. The “burning sensation and character compared to control Formula D” value in the assay on trained evaluators [4] (0.5% w/w Compound 8) was “more intense and lingering burning sensation”; in the assay with trained evaluators [4] (0.5% w/w Compound 8, listed as N-(4-(cyanomethyl)phenyl)-5-methyl-2-(prop-1-en-2-yl)cyclohexanecarboxamide), “improved lingering burning sensation”. In assay [5], the “cooling perception of the mouth-rinse composition compared to Control and WS-3 (Formula K)” value was “enhances and lengthens the cooling of a mouth-rinse composition better than WS-3”. Turning to `C=C(C)[C@@H]1CC[C@@H](C)C[C@H]1OC(=O)CCC(=O)O` [Compound 9, (1R,2S,5R)-4-((−5-methyl-2-(prop-1-en-2-yl)cyclohexyl)oxy)-4-oxobutanoic acid], the “Organoleptic Properties” value in assay [1] is “fruity, chemical, slight; also recorded: cooling/burn”.

Take `C=C(C)[C@@H]1CC[C@@H](C)C[C@H]1OC(=O)CCCC(=O)O` [Compound 10, (1R,2S,5R)-5-((−5-methyl-2-(prop-1-en-2-yl)cyclohexyl)oxy)-5-oxopentanoic acid]: in assay [1], the “Organoleptic Properties” value is on record as “sweet, fruity, slight; also recorded: cooling”. The “mouthwatering effect compared to control Formula F” value in assay [6] is “extended cooling and increased astringency”. Take `C=C(C)[C@@H]1CC[C@@H](C)C[C@H]1OC(=O)C(C)O` (stereo partly drawn) [Compound 11, (1R,2S,5R)-5-methyl-2-(prop-1-en-2-yl)cyclohexyl 2-hydroxypropanoate]: the “Organoleptic Properties” value in assay [1] is “minty, bitter, cooling”.

For the compound `C=C(C)[C@@H]1CC[C@@H](C)C[C@H]1OC(=O)CC(C)=O` [Compound 12, (1R,2S,5R)-5-methyl-2-(prop-1-en-2-yl)cyclohexyl 3-oxobutanoate], in assay [1], the “Organoleptic Properties” value was “bitter, fruity”. On to `C=C(C)[C@@H]1CC[C@@H](C)C[C@H]1OC(=O)CC(C)O` (stereo partly drawn) [Compound 13, (1R,2S,5R)-5-methyl-2-(prop-1-en-2-yl)cyclohexyl 3-hydroxybutanoate], for which the “Organoleptic Properties” value in assay [1] was “bitter, mild peppery”. As to `C=C(C)[C@@H]1CC[C@@H](C)C[C@H]1OCC(=O)O` [Compound 14, (1R,2S,5R)-2-((5-methyl-2-(prop-1-en-2-yl)cyclohexyl)oxy)acetic acid], the “Organoleptic Properties” value in assay [1] is listed as “creamy; also recorded: fruity,”. On to `C=C(C)[C@@H]1CC[C@@H](C)C[C@H]1OCC(=O)NCC(C)C` [Compound 15, (1R,2S,5R)—N-isobutyl-2-((5-methyl-2-(prop-1-en-2-yl)cyclohexyl)oxy)acetamide], for which the “Organoleptic Properties” value in assay [1] is listed as “bitter,; also recorded: tingle/; also recorded: burning”. `CCNC(=O)C1CC(C)CCC1C(C)C` (centres unmarked) [WS-3, N-ethyl-5-methyl-2-isopropylcyclohexanecarboxamide]: the “sensation provided by menthyl analog” value in assay [7] is “clean cool”.
